The experiment deals with Human PTP1B (Homo sapiens, UniProt P18031). To be noted: 2 mM, control wells.
Human PTP1B, sequence (P18031 1-298): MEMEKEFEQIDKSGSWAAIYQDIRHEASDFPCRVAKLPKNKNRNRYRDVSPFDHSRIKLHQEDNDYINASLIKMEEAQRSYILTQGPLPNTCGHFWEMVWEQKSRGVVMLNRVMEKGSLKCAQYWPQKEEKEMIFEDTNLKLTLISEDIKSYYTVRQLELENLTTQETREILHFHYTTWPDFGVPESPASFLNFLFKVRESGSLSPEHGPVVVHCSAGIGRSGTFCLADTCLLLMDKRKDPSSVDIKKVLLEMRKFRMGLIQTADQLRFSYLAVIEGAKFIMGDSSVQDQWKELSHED

Method: Human PTP1B (amino acid residues 1-298, cloned from a human placental library), without the GST tag and thrombin cleavage site, was inserted into a pMB replicon and transformed into E. coli BL21 (DE3), a strain containing a chromosomal copy of the gene for T7 RNA polymerase under control of a lacUV5 promoter. Expression of PTP1B was induced with isopropyl thiogalactose and cells were lysed in lysis buffer comprising 50 mM Tris-HCl pH 7.5, 10% glycerol, 1 mM EDTA, 3 mM DTT, 3 mM MgCl2, and 0.2 mg/ml lysozyme with 1 mg/ml DNAse I. The soluble protein was purified by ion exchange, hydrophobic interaction and gel exclusion chromatography for use in assays to identify PTP1B inhibitors. […] Recombinant proteins were stored at −70° C. until used.
Human PTP1B activity was measured using p-nitrophenol phosphate (pNPP) as substrate in a 96-well microtiter plate format. An assay pH of 7.2 is used for standard assays (measured extinction coefficient =9800 at pH 7.2).
Standard assays were conducted at room temperature in a total volume of 0.2 ml that contains Hepes buffer (50 mM, pH 7.2), NaCl (50 mM), EDTA (1 mM), DTT (1 mM), bovine serum albumin (1 mg/ml), pNPP (1.25 mM) and PTP1B (500 ng/ml, 13.5 nM). […] The OD^405 was subsequently measured. […]

For the compound `[Na+].[Na+].[Na+].[O]=[V]([O-])([O-])[O-]` [sodium orthovanadate], the “inhibition of PTP1B-catalyzed hydrolysis of pNPP” value is recorded as “completely”.

Source of the values: patent publication US20020115663A1, “Novel compounds” (priority 2000, published 2002).
